Key:
Experiment in all cases: KinomeScan profiling
Type in all cases: binding
[1] = target: FGFR4 (Homo sapiens, UniProt P22455); conditions: FGFR4, 1 μM; read-out: % control
How it was run: (§1)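 Normalised RLU (% control; DMSO 100%, positive control 0%) was measured for compounds dosed at 1 μM over 468 kinases, active cut-off <35%.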

[2] = target: T1, FLT3(R834Q) (Homo sapiens, UniProt P36888, R834Q); conditions: read-out: % control
T1 sequence (P36888 27-993 R834Q): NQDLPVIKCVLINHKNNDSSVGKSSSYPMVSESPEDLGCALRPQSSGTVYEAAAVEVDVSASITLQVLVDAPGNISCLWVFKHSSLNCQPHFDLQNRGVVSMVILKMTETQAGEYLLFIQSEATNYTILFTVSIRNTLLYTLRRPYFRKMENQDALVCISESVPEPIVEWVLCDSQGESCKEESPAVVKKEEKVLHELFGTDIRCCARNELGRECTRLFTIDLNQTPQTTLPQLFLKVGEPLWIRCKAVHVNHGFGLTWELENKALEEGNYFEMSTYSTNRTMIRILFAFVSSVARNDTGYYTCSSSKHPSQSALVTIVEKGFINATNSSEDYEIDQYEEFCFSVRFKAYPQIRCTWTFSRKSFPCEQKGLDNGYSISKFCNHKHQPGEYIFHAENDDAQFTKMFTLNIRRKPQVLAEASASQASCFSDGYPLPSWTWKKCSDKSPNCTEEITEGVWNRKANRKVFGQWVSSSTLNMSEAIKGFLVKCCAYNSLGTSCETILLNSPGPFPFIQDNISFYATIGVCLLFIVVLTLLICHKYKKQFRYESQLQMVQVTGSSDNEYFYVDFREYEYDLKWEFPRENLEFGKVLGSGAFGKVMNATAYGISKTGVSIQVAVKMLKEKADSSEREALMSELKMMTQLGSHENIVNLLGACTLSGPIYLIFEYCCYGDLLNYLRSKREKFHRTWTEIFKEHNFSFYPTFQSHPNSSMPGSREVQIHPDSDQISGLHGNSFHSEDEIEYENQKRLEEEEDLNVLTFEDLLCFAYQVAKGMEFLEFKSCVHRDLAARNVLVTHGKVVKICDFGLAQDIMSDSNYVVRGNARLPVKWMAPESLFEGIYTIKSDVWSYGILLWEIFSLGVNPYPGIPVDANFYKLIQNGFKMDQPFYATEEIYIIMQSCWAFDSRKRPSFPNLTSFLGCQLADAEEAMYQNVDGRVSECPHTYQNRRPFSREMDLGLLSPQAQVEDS
How it was run: as §1

[3] = target: MET(M1250T) (Homo sapiens, UniProt P08581, M1250T); conditions: read-out: % control
MET(M1250T), sequence (P08581 25-1390 M1250T): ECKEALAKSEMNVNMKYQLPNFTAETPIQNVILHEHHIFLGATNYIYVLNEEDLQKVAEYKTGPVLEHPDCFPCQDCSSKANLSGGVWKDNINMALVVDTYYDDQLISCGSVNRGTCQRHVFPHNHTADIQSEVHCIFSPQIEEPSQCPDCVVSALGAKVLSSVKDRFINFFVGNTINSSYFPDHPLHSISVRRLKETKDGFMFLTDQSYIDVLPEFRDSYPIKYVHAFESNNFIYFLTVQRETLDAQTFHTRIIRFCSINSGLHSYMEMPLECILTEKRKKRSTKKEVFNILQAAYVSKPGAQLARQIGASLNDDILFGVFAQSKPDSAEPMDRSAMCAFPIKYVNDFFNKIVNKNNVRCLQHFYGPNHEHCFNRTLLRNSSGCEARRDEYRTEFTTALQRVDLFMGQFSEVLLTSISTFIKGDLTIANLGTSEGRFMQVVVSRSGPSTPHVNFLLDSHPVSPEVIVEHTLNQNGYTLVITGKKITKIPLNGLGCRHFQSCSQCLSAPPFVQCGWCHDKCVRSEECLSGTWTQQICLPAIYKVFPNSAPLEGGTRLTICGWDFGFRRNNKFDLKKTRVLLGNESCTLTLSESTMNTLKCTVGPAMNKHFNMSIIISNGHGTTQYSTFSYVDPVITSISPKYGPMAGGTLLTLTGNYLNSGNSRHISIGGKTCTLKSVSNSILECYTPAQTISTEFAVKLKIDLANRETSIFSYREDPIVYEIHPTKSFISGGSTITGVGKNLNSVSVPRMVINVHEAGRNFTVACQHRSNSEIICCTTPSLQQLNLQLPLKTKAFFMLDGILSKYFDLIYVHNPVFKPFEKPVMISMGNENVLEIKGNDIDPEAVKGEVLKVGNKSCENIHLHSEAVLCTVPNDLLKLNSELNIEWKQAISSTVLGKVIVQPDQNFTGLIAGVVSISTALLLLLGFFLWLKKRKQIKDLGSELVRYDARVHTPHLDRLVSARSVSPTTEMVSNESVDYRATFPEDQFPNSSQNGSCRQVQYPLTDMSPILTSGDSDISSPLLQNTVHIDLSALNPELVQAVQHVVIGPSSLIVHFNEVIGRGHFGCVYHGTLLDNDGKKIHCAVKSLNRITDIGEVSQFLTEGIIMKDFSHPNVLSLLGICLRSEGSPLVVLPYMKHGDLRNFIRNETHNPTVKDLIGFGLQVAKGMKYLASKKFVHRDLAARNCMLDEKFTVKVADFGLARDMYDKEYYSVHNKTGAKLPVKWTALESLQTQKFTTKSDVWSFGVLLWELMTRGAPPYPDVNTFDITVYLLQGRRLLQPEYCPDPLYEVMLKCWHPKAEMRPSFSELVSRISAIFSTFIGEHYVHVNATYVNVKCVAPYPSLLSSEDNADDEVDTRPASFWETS
How it was run: as §1

[4] = target: T2, RIPK4 (Homo sapiens, UniProt P57078); conditions: RIPK4, 1 μM; read-out: % control
T2 sequence (P57078 1-832): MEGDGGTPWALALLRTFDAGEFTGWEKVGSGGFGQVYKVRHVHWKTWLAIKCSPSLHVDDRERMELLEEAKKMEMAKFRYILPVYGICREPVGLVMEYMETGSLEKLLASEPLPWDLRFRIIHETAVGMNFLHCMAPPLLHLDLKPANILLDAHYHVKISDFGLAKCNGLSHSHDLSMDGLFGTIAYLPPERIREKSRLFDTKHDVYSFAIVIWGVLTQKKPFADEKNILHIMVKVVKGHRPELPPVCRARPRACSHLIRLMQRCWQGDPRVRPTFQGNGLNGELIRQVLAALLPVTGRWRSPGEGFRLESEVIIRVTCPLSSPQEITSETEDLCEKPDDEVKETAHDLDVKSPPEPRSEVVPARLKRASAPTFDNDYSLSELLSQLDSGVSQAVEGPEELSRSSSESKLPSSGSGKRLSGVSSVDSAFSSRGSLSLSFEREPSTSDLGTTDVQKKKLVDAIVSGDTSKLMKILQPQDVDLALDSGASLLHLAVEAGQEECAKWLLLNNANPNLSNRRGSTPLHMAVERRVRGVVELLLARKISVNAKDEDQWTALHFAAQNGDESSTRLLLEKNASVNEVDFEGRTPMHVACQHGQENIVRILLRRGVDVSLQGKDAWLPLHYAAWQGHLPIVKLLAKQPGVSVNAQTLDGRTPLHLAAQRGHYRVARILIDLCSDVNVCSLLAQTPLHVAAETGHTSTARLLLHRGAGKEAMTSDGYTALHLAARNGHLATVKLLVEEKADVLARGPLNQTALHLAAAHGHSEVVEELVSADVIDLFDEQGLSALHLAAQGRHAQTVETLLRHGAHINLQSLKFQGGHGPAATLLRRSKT
How it was run: as §1

[5] = target: T3, STK16 (Homo sapiens, UniProt O75716); conditions: STK16, 1 μM; read-out: % control
T3 construct: purchased KinomeScan® (panel service)
T3 sequence (O75716 whole entry): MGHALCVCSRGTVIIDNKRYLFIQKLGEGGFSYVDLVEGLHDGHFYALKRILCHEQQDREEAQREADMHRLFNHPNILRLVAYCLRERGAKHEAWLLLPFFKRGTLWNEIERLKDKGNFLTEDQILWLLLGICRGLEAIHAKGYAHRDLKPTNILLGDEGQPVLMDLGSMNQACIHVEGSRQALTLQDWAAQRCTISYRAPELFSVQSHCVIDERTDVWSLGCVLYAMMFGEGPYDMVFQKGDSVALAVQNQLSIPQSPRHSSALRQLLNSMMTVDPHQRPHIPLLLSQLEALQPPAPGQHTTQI
How it was run: as §1

[6] = target: WNK1 (Homo sapiens, UniProt Q9H4A3); conditions: WNK1, 1 μM; read-out: % control
WNK1, sequence (Q9H4A3 whole entry): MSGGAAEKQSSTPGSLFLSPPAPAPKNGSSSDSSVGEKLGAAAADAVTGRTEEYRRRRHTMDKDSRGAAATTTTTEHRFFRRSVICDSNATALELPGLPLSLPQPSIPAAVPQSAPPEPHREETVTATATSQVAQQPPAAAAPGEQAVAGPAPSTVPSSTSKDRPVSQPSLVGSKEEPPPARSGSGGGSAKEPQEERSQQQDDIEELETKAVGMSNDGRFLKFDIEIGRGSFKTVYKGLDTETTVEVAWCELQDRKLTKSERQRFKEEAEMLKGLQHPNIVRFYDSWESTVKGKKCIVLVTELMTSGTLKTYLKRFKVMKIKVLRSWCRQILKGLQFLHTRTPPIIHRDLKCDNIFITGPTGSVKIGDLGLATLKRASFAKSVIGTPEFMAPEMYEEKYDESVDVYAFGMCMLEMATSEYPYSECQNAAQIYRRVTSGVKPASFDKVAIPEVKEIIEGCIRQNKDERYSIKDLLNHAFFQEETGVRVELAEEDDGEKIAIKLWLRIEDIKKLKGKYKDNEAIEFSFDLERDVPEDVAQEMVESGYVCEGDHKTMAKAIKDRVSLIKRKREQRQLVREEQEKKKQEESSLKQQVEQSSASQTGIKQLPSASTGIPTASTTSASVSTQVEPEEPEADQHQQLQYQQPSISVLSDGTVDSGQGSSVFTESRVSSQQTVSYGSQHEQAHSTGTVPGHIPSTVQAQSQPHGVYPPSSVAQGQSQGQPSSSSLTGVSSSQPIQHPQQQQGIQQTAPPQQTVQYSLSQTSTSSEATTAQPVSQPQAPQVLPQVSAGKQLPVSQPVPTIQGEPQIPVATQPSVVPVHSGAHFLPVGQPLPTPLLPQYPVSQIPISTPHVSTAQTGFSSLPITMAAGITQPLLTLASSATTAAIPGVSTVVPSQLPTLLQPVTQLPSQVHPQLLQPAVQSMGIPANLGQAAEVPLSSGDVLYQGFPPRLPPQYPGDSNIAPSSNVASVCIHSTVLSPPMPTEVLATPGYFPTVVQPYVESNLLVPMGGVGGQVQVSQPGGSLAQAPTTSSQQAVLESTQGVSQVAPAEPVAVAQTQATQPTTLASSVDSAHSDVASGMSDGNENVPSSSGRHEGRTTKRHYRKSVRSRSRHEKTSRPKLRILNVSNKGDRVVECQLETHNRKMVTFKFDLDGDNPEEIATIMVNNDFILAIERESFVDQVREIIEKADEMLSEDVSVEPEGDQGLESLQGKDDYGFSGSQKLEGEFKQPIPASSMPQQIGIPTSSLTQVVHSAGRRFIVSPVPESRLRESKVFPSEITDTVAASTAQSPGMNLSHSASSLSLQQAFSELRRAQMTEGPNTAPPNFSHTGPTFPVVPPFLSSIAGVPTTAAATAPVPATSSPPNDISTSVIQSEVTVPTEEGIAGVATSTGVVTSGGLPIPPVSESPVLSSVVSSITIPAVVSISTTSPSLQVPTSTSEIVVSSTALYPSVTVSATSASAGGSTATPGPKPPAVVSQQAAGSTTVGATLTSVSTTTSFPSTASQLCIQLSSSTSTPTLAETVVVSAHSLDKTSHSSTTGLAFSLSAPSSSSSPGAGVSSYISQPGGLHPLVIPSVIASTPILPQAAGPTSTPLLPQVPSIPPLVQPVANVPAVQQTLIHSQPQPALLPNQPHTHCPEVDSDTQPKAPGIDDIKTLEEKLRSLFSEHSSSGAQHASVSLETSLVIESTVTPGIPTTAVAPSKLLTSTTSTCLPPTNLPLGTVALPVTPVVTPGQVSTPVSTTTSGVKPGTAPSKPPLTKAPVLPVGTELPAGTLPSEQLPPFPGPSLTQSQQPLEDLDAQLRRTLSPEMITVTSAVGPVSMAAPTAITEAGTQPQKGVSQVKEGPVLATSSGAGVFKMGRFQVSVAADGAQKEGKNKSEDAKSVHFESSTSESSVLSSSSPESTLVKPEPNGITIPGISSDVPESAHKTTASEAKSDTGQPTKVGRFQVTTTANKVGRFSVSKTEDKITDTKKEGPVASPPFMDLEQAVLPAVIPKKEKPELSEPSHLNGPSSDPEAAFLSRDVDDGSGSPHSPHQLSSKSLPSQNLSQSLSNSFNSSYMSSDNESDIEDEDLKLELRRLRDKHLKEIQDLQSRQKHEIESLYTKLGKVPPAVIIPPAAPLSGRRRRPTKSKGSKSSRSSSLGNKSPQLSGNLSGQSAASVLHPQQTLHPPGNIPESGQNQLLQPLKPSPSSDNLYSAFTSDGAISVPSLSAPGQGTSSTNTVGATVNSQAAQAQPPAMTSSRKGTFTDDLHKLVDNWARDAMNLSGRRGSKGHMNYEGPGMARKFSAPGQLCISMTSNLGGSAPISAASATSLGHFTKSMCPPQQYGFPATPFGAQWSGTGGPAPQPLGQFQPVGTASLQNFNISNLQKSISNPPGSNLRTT
How it was run: as §1

FGFR4, sequence (P22455 22-802): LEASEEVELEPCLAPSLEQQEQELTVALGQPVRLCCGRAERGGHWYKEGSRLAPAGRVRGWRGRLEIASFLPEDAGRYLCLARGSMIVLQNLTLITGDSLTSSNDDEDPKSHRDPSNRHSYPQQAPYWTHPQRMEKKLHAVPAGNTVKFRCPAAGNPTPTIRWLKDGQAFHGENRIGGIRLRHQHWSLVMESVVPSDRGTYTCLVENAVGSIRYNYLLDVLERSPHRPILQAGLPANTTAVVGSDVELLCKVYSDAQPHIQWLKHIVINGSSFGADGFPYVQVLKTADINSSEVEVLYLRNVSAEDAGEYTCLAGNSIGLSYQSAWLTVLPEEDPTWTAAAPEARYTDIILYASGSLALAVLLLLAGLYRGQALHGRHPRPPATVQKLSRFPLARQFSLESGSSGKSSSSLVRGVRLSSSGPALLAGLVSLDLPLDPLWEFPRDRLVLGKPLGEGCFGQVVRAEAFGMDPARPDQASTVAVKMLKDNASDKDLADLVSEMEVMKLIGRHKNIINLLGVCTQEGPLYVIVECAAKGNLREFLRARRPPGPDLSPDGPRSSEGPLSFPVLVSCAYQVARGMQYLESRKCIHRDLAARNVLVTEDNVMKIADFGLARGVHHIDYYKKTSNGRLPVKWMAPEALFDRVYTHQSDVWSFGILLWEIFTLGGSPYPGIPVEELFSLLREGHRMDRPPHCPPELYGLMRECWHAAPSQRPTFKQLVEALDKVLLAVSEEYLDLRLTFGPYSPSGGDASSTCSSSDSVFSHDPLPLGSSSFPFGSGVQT

Structure (SMILES) | remaining binding at 1 µM [1] [%] | remaining binding at 1 µM [2] [%] | remaining binding at 1 µM [3] [%] | remaining binding at 1 µM [4] [%] | remaining binding at 1 µM [5] [%] | remaining binding at 1 µM [6] [%]
CNc1c(-c2ccc(C(=O)N3CCC(N4CCOCC4)CC3)cc2)cnc2[nH]cc(Cl)c12 [Compound 96, (4-(3-chloro-4-(methylamino)-1H-pyrrolo[2,3-b]pyridin-5-yl)phenyl)(4-morpholinopiperidin-1-yl)methanone] | 59 | 52 | 78 | 7.8 | 2 | 80
O=C(c1ccc(-c2cnc3[nH]cc(Cl)c3c2NC2CCCC2)cc1)N1CCC(N2CCOCC2)CC1 [Compound 101, (4-(3-chloro-4-(cyclopentylamino)-1H-pyrrolo[2,3-b]pyridin-5-yl)phenyl)(4-morpholinopiperidin-1-yl)methanone] | 85 | 75 | 23 | 100 | 13 | 90
CNc1c(-c2cnn([C@H]3CCN(C(C)=O)C[C@@H]3F)c2)cnc2[nH]cc(Cl)c12 [Compound 77, 1-((3S,4S)-4-(4-(3-chloro-4-(methylamino)-1H-pyrrolo[2,3-b]pyridin-5-yl)-1H-pyrazol-1-yl)-3-fluoropiperidin-1-yl)ethan-1-one] | 61 | 45 | 49 | 1.3 | 2.9 | 67
